From patent US9242991B2, “Substituted fused heterocycles as c-Met tyrosine kinase inhibitors” (BETTA PHARMACEUTICALS CO., LTD, priority 2010, dated 2016)
“And” between values parts separate entries of the source, which are not always exact repeats. Equal values may be shown once.

Assays:
[1] = system: U87MG, MKN45, H441 and Caki-1 tumors; assay: Xenograft Tumor Models (U87MG, MKN45, H441, Caki-1); assay type: in vivo, human; settings: oral gavage, athymic nude mice
Procedure: (§1) Human glioblastoma cells U87MG, human gastric cancer cells MKN45, human non small cell lung cancer cells H441, and human renal carcinoma cells Caki-1 are expanded in culture, harvested, and injected subcutaneous Iy onto the rear flank of athymic nude mice. Testing compound is prepared in an appropriate vehicle and is administered by oral gavage when tumors are established (7-21 days after implant). Tumor response is determined by tumor volume measurement performed twice a week during the course of treatment. Tumor volume inhibition (% growth inhibition) is calculated by comparing treated groups to a vehicle control group. Body weight is taken as a general measurement of toxicity. […] At 60 mg/kg dose (PO, BID×35), 82% growth inhibition is achieved. At 120 mg/kg dose (PO, BID×35), 92% growth inhibition reaches.

U87MG tumors = assay: Xenograft tumor model, U87MG; assay type: in vivo, human; settings: BID×35, athymic nude mice
Procedure: as §1

[2] = target: T1, c-Met phosphorylation (pY1349) in NCI-H460 cells (Homo sapiens, UniProt P08581); assay: HGF Stimulated Met (pY1349) NCI-H460 Cell-based ELISA
T1 construct: host or cells: NCI-H460
T1 sequence (P08581 25-1390): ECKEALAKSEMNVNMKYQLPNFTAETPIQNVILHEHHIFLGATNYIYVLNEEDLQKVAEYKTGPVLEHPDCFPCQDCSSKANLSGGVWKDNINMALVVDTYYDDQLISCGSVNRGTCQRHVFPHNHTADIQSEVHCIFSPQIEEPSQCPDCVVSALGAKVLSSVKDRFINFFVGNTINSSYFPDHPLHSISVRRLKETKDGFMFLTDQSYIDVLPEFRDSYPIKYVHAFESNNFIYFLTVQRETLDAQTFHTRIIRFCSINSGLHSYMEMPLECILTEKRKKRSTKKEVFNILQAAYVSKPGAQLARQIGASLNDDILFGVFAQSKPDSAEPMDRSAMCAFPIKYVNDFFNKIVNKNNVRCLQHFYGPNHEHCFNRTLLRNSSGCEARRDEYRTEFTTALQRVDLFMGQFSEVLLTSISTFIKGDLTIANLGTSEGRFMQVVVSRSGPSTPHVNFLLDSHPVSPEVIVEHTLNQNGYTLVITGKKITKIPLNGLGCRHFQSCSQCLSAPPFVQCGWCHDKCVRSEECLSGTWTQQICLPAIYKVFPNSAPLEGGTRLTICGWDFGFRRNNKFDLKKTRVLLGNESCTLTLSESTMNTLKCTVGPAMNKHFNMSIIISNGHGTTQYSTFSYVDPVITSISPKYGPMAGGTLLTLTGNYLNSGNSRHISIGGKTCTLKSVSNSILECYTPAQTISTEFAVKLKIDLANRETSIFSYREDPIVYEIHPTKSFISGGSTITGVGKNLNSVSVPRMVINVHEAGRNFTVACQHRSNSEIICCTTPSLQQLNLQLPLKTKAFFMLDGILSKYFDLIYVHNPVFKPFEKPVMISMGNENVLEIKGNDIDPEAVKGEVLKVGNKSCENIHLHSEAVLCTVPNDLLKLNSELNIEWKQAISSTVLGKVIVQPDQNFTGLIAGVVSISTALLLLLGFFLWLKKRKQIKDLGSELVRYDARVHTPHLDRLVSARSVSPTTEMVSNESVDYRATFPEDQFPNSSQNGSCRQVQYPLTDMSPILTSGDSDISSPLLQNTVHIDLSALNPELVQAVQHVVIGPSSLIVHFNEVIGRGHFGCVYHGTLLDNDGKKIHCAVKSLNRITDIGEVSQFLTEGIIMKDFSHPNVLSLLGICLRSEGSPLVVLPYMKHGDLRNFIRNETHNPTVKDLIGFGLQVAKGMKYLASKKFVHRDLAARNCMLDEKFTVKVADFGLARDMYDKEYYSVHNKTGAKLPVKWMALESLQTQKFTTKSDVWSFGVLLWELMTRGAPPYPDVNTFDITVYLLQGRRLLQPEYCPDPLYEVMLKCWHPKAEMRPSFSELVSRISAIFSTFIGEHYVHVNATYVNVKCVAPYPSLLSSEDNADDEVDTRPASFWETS
Procedure: HGF Stimulated Met (pY1349) NCI-H460 Cell-based ELISA NCI-H460 cells (purchased from ATCC) are cultured in RPMI 1640 media (Invitrogen) supplemented with 10% Fetal Bovine Scrum (FBS) and plated (prior to becoming 70% confluent) in 96-well flat-bottom plates at a density of 20,000 cells per well in 80 μL volume. The cells are then incubated overnight in a cell culture incubator (5% CO2, 95% Relative Humidity (RH) and 37° C.) and allowed to attach to the plate. The following morning the cells are washed with 2 volumes of a Reduced Serum Media (RSM) (RPMI 1640 media supplemented with 0.5% FBS). After removal of the last wash, 80 µL of RSM is added to each well of the cell plates. The cell plates are incubated for 2.5 hours in a cell culture incubator, and then dosed with compounds. Compound inhibitors are first solubilized at 10 mM in 100% DMSO and then diluted to 100 μM with 2% DMSO RSM. Subsequently compound serial dilutions (1:3) are prepared over a 100 μM to 0.005 μM range. Cells are dosed with the addition of 20 μL of compound stock to produce a final DMSO concentration of 0.4% and a final compound concentration dose range between 20 and 0.001 μM. After dosing with compounds the cells plates are gently agitated to mix and then allowed to incubate for 30 min in a cell culture incubator. After dose completion, the cells are stimulated with the addition of 20 μL per well of Hepatocyte Growth Factor (HGF) at a final concentration of 100 ng/mL in RSM (all wells except MIN wells are stimulated, MIN wells are dosed with 20 μL RSM). After 10 min incubation in a cell culture incubator, the liquid is removed from the cell plate wells, and the cells are lysed by the addition of 50 μL of ice-cold Meso Scale Discovery® (MSD, Gaithersburg, Md.) IX Lysis Buffer (150 mM NaCl, 20 mM Tris, pH7.5, 1 mM EDTA, 1 mM ethylene glycol tetraacetic acid, and 1% TRITON® X-100) supplemented with Phosphatase I and II and Protease inhibitors (Sigma, St. Louis, Mo.). After lysis at RT for 30 min the lysates are transferred to and captured on a MSD® Multi-Spot 96-well. 4-spot PhosphoMet plate that is BSA-blocked (at 30 mg/mL Block A in IX Tris Wash Buffer) and then washed one time with Tris Wash Buffer. After 2 hours capture (at RT) the lysates are removed from the MSD® plate and the plate is washed with IX Tris Wash Buffer. After blotting, 25 μL of 5 nM Sulfo-Tag Anti-Total Met antibody (detection antibody, MSD® prepared in IX Tris Wash Buffer supplemented with 10 mg/mL BSA and 0.1% Blocker D-R (MSD®)) is added to the wells of the MSD® plate. After 1 hour capture (at RT) the MSD® plate wells are washed with IX Tris Wash Buffer, and then 150 μL of IX Read Buffer T (with surfactant, MSD®) is added. Immediately after the addition of the Read Buffer, the plates are analyzed with a SECTOR 6000 MSD® Imager plate reader. Relative IC50 values are determined using MSD activity units by calculating percent inhibition with respect to on-plate “MIN” and “MAX” controls and then fitting the percent inhibition values and ten-point dose response data to a four-parameter logistic equation. This assay has a Minimum Significant Ratio (MSR) of 2.06.

[3] = target: T2, c-Met phosphorylation in SI 14 tumors (human c-Met) (Homo sapiens, UniProt P08581); assay: c-Met In Vivo Target Inhibition Assay (SI 14 tumors in nude mice, phosphor-Met ELISA); settings: oral gavage, read-out: ED50 (dose that produces 50% inhibition in tumor)
T2 construct: host or cells: SI 14 (S114) cells as subcutaneous tumours in athymic nude mice
T2 sequence (P08581 25-1390): as above
Procedure: SI 14 cells (licensed from PHS, over-express both human HGF and human c-Met) are cultured in a growth media (Dulbecco's Modified Eagle Medium) supplemented with 10% fetal calf serum and expanded. Cells are harvested and washed twice with phosphate buffered saline and 2×10^6 cells are mixed with equal volume of BD Matrigel™ matrix (BD Bioscience, Franklin, N.J.), and injected subcutaneous Iy into the flank of nude mice (athymic nude, from Harlan, Indianapolis, Ind.). At day 8 after implant, compounds (formulated in 10% acacia or 1% carboxymethylcellulose/0.5% sodium lauryl sulfate/0.05% antifoam as suspension) are administered to animals by oral gavage at 50 mg/kg. Animals are sacrificed at 2 hours post dose, and tumors are harvested and stored frozen until needed.
Frozen tumors are pulverized using motar-pastel. The pulverized tissues are transferred to a tube containing Lysing Matrix D beads (MP Biomedicals, Solon, Ohio) and 600 μL lysis buffer (RIPA buffer, containing 50 mM Tris-HCl, pH7.4, 150 mM NaCl, 1% NP-40, 0.5% sodium deoxycholate, 0.1% SDS, from Boston Bioproducts). A FastPrep® Cell Disrupter (MP Biomedicals) is used to disrupt the tissue and lyse the cells. […] Protein concentration is determined by Bradford method. Tumor lysates are loaded onto MSD® phosphor-Met ELISA plates and phosphor-c-Met level is determined using the same protocol as H460 cell-based ELISA. […]

[4] = 0.2 μM compound, single replicates

## O=C(Nc1ccc(Oc2ncnc3cc4c(cc23)OCCOCCOCCO4)c(F)c1)c1c[nH]cc(-c2ccc(F)cc2)c1=O [Example 1, 5-(4-Fluoro-phenyl)-4-oxo-1,4-dihydro-pyridine-3-carboxylic acid [3-fluoro-4-(7,8,10,11,13,14-hexahydro-6,9,12,15-tetraoxa-1,3-diaza-cyclododeca[b]naphthalen-4-yloxy)-phenyl]-amide]
[1]
  anti-tumor activity in xenograft models: excellent dose dependent anti-tumor activity
U87MG tumors; 30 mg/kg PO
  growth inhibition of U87MG tumors: 59%
U87MG tumors; 60 mg/kg PO
  growth inhibition of U87MG tumors: 82%
U87MG tumors; 120 mg/kg PO
  growth inhibition of U87MG tumors: 92%
[2]; 0.2 μM compound
  Mean (Counts − Blanks): 50
[2]; 0.2 μM compound, mean of replicates
  Mean of Activity (% Control): 0 % Control
[2]; [4]
  Activity (% Control): 0 % Control
  Counts: 1008 and 895
[2]; NCI-H460 cells, HGF 100 ng/mL, Example 1 value is average of n=6, read-out: IC50 (inhibition of c-Met phosphorylation in cells)
  IC50: 35.2 nM
[3]
  ED50: 2.9 mg/kg
other
  melting point: 188 to 190 °C
